Assay results from patent US10174013B2, “Benzimidazole derivatives as kinase inhibitors” (SELVITA S.A., priority 2012, dated 2019).
Read-outs that look alike come from different tables or passages of the source.

Key:
SW-480 cells = assay: Growth inhibition, MTS assay, SW-480; assay type: cell-based, Human; details: 72 hours, MTS cell viability; read-out: SW-480 ED50
KG-1 cells = assay: Growth inhibition, MTS assay, KG-1; assay type: cell-based, Human; details: 72 hours, MTS cell viability
Text: (§1) The following cell lines, were obtained and used in tests as outlined below: • Human myelomonocytic, biphenotypic leukemia MV4-11 cells (harboring a Flt3-ITD mutation); • Human Acute Myeloid Leukemia MOLM16 cells; • Human Acute Myeloid Leukemia MOLM13 cells (harboring a Flt3-ITD mutation); • Human Myeloid Leukemia KG-1 cells; • Human erythroleukemia HEL92 cells; • Human mantle cell lymphoma Jeko-1 cells; • Human hepatocellular carcinoma HepG2 cells; and • Human colon adenocarcinoma SW-480 cells.
(§2) The assays were carried out according to the following protocol, which is described as an example for the MV4-11 cells:
(§3) Ten thousand MV4-11 cells were inoculated into each well of a 96-well microplate (manufactured by Corning Corp.) using Iscove's MDM medium (culture medium) containing 10% fetal calf serum (FCS). The same day, a dimethyl sulfoxide (DMSO) solution of each test compound prepared in a concentration of 10 mmol/L was further diluted with DMSO to the desired concentrations (0.1, 0.5, 1, 2.5, 5 and 10 micromol/L), and the diluted solution was added to each well. The individual wells were further cultured in 5% carbon dioxide at 37° C. for 72 hours. […] Briefly, 10 μl MTS (3-(4,5-Dimethyl-2-thiazolyl)-5-(carboxymethoxyphenyl)-2-(4-sulfophenyl)-2H-tetrazolium was added to each well, and culturing was performed in 5% carbon dioxide at 37° C. for 2 hours. After this incubation and using a microplate spectrophotometer (Synergy 2 multi-mode microplate reader (BioTek)), the absorbance of each well was measured at 490 nm. The value for cells not incubated with a test compound was designated as 100%. By comparing these values with the absorbance difference obtained at the well in which each test compound was added, the cell viability (% viability) after treatment with the test compound was calculated.

Pim-3 = Pim-3 (Homo sapiens (Human), UniProt Q86V86); assay: ADP-Glo Kinase Assay, Pim-3; assay type: biochemical; details: 1 μM compound; for inhibition at 1 µM: read-out: Pim-3 % INH (1 μM)
Outline: (§4)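 Buffer was MOPS 5 mM (pH 7.5) with MgCl2, EDTA and DTT; ATP set at apparent Km per kinase. Compounds were diluted in assay buffer to 1000 nM. Kinase-generated ADP was converted to luciferase signal and normalised to percent inhibition.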

MOLM13 cells = assay: Growth inhibition, MTS assay, MOLM13; assay type: cell-based, Human; details: 72 hours, MTS cell viability, read-out: MOLM 13 ED50
Text: as §1, §2, §3

MV4-11 xenograft = MV4-11 xenograft in immunocompromised mice; assay type: in vivo; details: MV4-11 xenograft, oral
Outline: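 MV4-11 leukemic cells engrafted in NOD/scid or SCID/beige mice; oral dosing started at tumor volume approx. 50-200 mm^3, daily QD or BID for 2-3 weeks. Efficacy read as tumor growth inhibition (TGI), tolerability as body weight change (ΔBW).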

FLT3-ITD = assay: ADP-Glo Kinase Assay, Flt3 ITD; assay type: biochemical, Human; details: 1 μM compound
Method: Compounds of the present invention were tested for their inhibitory activity against Pim-1, Pim-2, Pim-3, Flt3 wt, Flt3 ITD, CDK2/E and DYRK1. The testing of the compounds was carried out using the ADP-Glo™ Kinase Assay from Promega Corporation (Madison, Wis., USA).
The ADP-Glo™ Kinase Assay is a luminescent ADP detection assay to measure kinase activity by quantifying the amount of ADP produced during a kinase reaction. The kinase assay is performed in kinase assay buffer (5 mM MOPS, pH 7.5, 5 mM MgCl2, 0.4 mM EDTA, 1.5 mM DTT). Test samples initially dissolved in DMSO at 10 mM were diluted with the assay buffer to 1000 nM. A 30 μL volume/well of a mixture of substrates containing ATP (final ATP concentration in each kinase assay was equal to its apparent ATP Km).
The assay was performed in two steps: first, after the kinase reaction, an equal volume of ADP-Glo™ Reagent was added to terminate the kinase reaction and deplete the remaining ATP. Second, the Kinase Detection Reagent was added to simultaneously convert ADP to ATP and allowed the newly synthesized ATP to be measured using a luciferase/luciferin reaction. The luminescent signal generated was proportional to the ADP concentration produced and was correlated with kinase activity. A microplate spectrophotometer (Synergy 2 multi-mode microplate reader [BioTek]) was used for detecting the luminescence. The data was normalized and the percent of inhibition was obtained according to the following equation: […]

Pim-1 = Pim-1 (Homo sapiens (Human), UniProt P11309); assay: ADP-Glo Kinase Assay, Pim-1; assay type: biochemical; details: 1 μM compound; for inhibition at 1 µM: read-out: Pim-1 % INH (1 μM)
Sequence of Pim-1 (P11309 whole entry): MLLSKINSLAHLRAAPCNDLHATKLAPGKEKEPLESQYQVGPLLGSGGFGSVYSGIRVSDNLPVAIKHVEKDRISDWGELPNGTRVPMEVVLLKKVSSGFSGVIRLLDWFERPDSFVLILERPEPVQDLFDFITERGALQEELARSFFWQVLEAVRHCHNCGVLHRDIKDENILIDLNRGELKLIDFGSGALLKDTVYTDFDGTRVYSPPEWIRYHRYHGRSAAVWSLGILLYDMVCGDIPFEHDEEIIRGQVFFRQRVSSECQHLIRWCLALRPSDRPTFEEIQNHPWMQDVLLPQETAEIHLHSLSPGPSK
Outline: as §4

FLT3wt = FLT3wt (Homo sapiens (Human), UniProt P36888); assay: ADP-Glo Kinase Assay, Flt3 wt; assay type: biochemical; details: 1 μM compound; for inhibition at 1 µM: read-out: Flt3wt % INH (1 μM)
Sequence of FLT3wt (P36888 27-993): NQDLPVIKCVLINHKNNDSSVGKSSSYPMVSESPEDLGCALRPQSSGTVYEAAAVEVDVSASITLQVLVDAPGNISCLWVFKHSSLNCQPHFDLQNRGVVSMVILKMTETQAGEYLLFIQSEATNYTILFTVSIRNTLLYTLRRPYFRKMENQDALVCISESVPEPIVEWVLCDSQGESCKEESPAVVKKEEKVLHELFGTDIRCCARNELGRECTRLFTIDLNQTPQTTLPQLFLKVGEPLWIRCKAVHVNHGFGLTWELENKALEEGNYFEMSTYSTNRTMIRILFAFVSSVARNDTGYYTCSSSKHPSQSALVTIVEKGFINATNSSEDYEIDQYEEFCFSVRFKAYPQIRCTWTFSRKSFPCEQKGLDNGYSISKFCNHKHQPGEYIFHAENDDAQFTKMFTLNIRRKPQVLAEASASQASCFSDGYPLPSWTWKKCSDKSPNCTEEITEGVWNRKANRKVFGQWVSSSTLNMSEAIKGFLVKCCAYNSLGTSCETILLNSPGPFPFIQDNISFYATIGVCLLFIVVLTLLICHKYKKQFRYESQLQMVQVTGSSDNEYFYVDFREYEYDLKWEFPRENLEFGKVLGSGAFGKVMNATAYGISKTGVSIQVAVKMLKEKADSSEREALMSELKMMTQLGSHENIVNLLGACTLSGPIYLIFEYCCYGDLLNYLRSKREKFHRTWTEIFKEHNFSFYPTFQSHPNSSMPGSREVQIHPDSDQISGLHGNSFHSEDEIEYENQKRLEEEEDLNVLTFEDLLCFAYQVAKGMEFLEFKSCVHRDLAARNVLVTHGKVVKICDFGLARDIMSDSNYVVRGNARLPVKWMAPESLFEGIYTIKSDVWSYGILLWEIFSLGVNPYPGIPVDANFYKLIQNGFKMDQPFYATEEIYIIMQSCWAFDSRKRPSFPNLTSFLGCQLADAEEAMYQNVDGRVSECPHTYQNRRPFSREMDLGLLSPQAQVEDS
Outline: as §4

HepG2 cells = assay: Growth inhibition, MTS assay, HepG2; assay type: cell-based, Human; details: MTS cell viability, read-out: HepG2 ED50
MOLM16 cells = assay: Growth inhibition, MTS assay, MOLM16; assay type: cell-based, Human; details: MTS cell viability, read-out: MOLM 16 ED50
MV4-11 cells = assay: Growth inhibition, MTS assay, MV4-11; assay type: cell-based, Human; details: MTS cell viability, read-out: MV4-11 ED50
Pim-2 = Pim-2 (Homo sapiens (Human), UniProt Q9P1W9); assay: ADP-Glo Kinase Assay, Pim-2; assay type: biochemical; details: 1 μM compound; for inhibition at 1 µM: read-out: Pim-2 % INH (1 μM)
Sequence of Pim-2 (Q9P1W9 whole entry): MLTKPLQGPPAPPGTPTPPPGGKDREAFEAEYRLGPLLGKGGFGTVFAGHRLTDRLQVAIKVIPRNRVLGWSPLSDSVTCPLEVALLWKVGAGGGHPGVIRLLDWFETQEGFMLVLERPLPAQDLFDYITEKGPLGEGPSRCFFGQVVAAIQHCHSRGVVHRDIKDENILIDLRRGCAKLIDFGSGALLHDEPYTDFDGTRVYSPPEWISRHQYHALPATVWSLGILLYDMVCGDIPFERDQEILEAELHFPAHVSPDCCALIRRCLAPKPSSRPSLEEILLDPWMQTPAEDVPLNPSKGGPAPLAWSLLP
Outline: as §4

Jeko-1 cells = assay: Growth inhibition, MTS assay, Jeko-1; assay type: cell-based, Human; details: 72 hours, MTS cell viability, read-out: Jeko-1 ED50
HEL92 cells = assay: Growth inhibition, MTS assay, HEL92; assay type: cell-based, Human; details: MTS cell viability, read-out: HEL92 ED50
DYRK1 = DYRK1 (Homo sapiens (Human), UniProt Q13627); assay: ADP-Glo Kinase Assay, DYRK1; assay type: biochemical; details: 1 μM compound; for inhibition at 1 µM: read-out: DYRK1A % INH (1 μM)
Outline: as §4

CDK2/E = CDK2/E (Homo sapiens (Human), UniProt P24941); assay: ADP-Glo Kinase Assay, CDK2/E; assay type: biochemical; details: 1 μM compound; for inhibition at 1 µM: read-out: CDK2/E % INH (1 μM)
Outline: as §4

hERG potassium channel = hERG potassium channel (Homo sapiens (Human), UniProt Q12809); assay: hERG automated patch clamp assay (QPatch HT)
Sequence of hERG potassium channel (Q12809 whole entry): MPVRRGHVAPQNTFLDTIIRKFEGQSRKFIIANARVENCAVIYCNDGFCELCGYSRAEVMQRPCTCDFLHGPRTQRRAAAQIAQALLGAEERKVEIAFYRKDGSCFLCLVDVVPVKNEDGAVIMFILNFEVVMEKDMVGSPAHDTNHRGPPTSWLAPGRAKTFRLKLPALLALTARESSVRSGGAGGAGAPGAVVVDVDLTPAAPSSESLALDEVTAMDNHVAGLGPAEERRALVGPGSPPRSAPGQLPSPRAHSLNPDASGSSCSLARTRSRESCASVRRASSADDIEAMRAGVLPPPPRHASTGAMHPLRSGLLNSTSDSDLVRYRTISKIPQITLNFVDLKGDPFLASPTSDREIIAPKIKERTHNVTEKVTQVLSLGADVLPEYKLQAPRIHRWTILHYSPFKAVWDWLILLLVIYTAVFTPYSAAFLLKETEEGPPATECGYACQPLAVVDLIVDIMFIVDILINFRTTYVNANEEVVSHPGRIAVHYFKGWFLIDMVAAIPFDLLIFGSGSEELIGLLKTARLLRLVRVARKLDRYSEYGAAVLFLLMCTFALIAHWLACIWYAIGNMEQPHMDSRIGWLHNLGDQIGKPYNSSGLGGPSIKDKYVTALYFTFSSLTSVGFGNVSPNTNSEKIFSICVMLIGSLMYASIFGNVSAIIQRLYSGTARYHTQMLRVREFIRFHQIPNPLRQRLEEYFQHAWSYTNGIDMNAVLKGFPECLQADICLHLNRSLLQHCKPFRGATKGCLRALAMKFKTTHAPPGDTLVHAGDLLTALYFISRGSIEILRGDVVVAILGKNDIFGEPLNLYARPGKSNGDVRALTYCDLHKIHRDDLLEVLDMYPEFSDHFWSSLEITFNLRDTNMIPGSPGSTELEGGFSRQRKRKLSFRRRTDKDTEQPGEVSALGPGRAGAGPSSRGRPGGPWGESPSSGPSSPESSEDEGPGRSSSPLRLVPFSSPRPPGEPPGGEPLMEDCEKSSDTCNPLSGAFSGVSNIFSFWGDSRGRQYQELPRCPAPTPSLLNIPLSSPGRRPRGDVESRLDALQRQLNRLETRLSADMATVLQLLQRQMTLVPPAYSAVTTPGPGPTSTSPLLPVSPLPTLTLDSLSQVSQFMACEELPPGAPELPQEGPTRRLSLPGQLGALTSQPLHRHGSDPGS
Outline: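 Automated whole-cell patch clamp of hERG current in mammalian cells at room temperature. Compounds applied at 0.1, 1, 3, 10 and 30 μM, 3 min per concentration, n≥2 cells each.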

CYP3A4 = CYP3A4 (Homo sapiens (Human), UniProt P08684); assay: Cytochrome P450 inhibition, fluorescence, CYP3A4; assay type: in vitro ADME; details: recombinant CYP3A4, fluorescence detection; read-out: CYP inhibition (CYP 3A4 screening, IC50 class)
Sequence of CYP3A4 (P08684 whole entry, canonical isoform): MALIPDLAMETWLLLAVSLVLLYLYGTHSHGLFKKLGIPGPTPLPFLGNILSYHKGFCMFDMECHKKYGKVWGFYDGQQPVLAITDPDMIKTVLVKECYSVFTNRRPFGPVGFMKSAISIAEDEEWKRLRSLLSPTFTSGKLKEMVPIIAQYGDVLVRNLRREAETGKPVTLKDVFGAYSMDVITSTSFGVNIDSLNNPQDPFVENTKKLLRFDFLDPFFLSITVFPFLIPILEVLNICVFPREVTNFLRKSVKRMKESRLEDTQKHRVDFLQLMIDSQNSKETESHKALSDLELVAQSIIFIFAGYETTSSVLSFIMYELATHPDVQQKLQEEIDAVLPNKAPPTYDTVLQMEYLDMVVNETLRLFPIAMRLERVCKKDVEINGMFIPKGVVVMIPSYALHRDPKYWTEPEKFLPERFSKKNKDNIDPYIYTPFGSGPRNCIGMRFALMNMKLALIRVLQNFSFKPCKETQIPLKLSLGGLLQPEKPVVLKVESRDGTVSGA
Method: The assays for cytochrome P450 inhibition facilitate the identification of drug candidates with lower potential for drug-drug interactions (weak enzymes inhibitors). In vitro experiments were conducted to determine whether a drug inhibits a specific CYP enzyme. The experiments comprised the incubation of the drug with probe substrates for the CYP enzymes, wherein the following recombinant cytochrome P450 isoforms were employed: CYP1A2, CYP2C8, CYP2C9, CYP2C19, CYP2D6 and CYP3A4, together with various probe substrates enabling fluorescence detection. The protocol uses a single substrate concentration near the apparent Km and multiple compound concentrations.
The assay was performed in 96-well microtiter plates. The row designations were A through H and the column designations were 1 through 12. […] Each compound (see Table 6 for tested compounds) was added to the wells in column 1 and serially diluted to the wells in column 8. Wells 9 and 10 were control wells which contained no test compound (therefore no inhibition-full signal is detected.) The wells in columns 11 and 12 were blanks, where STOP solution was added prior to the addition of the enzyme/substrate mix to the NADPH regenerating system (the only signal present in these wells is background noise.) The assay was conducted in a final volume of 0.2 ml per well.
The stock solutions of the tested compounds were prepared in DMSO at 10 mM concentration. […] After mixing the compounds with solution containing NADPH-cofactors, the mixed plate was preincubated in a 37° C. incubator for at least 10 minutes; next, the fluorescence of compounds using recommended excitation/emission filters was measured in order to eliminate false results originating from autofluorescence of the compounds. In the following step, the enzyme/substrate mix was added to columns 1 through 10 and the plates were incubated at 37° C. for specific times depending on the CYP tested (incubation times ranged from 30 to 45 minutes). After adding STOP SOLUTION to all wells and respective enzyme/substrate mix to the wells in columns 11 and 12, the plate was scanned with a fluorescent plate scanner. The excitation/emission filters used for the specific assays are described in the GenTest Screening Kit instruction manual.

SMILES: CCn1c(N2CCC[C@H](N)C2)nc2c([N+](=O)[O-])c(Br)c(Br)cc21 [Example 1AH]
- IC50 (SW-480 cells): 7000 nM
- KG-1 ED50 (KG-1 cells): 650 nM
- Pim-3 % INH (1 μM) (Pim-3): >95%
- IC50 (MOLM13 cells): 1800 nM
- TGI (tumor growth inhibition) (MV4-11 xenograft; 150 mg/Kg QD): 74%
- ΔBW (body weight change) (MV4-11 xenograft; 150 mg/Kg QD): 0.6%
- TGI (tumor growth inhibition) (MV4-11 xenograft; doses as in Table 3): more than 70%
- Flt3ITD % INH (1 μM) (FLT3-ITD): 29%
- Pim-1 % INH (1 μM) (Pim-1): >95%
- Flt3wt % INH (1 μM) (FLT3wt): 9%
- IC50 (HepG2 cells; 72 hours): 2200 nM
- IC50 (MOLM16 cells; 72 hours): 200 nM
- IC50 (MV4-11 cells; 72 hours): 600 nM
- Pim-2 % INH (1 μM) (Pim-2): 55%
- IC50 (Jeko-1 cells): 1900 nM
- IC50 (HEL92 cells; 72 hours): 6000 nM
- DYRK1A % INH (1 μM) (DYRK1): 39%
- CDK2/E % INH (1 μM) (CDK2/E): 6%

SMILES: CCn1c(N2CC[C@H](N)C2)nc2c(C#N)c(Br)c(Br)cc21 [Example 1DR]
- KG-1 ED50 (KG-1 cells): 140 nM
- inhibition at 1 µM (Pim-3): 91%
- IC50 (MOLM13 cells; Homo sapiens, MOLM-13): 3900 nM
- Flt3ITD % INH (1 μM) (FLT3-ITD): 50%
- inhibition at 1 µM (Pim-1): > 95%
- inhibition at 1 µM (FLT3wt): 18%
- IC50 (HepG2 cells; Homo sapiens, HepG2, 72 h): 1200 nM
- IC50 (MOLM16 cells; Homo sapiens, MOLM16, 72 h): 100 nM
- IC50 (MV4-11 cells; Homo sapiens, MV4-11, 72 h): 1000 nM
- inhibition at 1 µM (Pim-2): 59%
- IC50 (Jeko-1 cells; Homo sapiens, JeKo-1): 1300 nM
- IC50 (HEL92 cells; Homo sapiens, 72 h): 6200 nM
- inhibition at 1 µM (DYRK1): 65%
- inhibition at 1 µM (CDK2/E): 28%

SMILES: CC(C)n1c(NCCOCCN)nc2c([N+](=O)[O-])c(Br)c(Br)cc21 [Example 22J, N-[2-(2-aminoethoxy)ethyl]-5,6-dibromo-4-nitro-1-(propan-2-yl)-1H-1,3-benzodiazol-2-amine]
- inhibition at 1 µM (Pim-3): 79%
- Flt3ITD % INH (1 μM) (FLT3-ITD): 5%
- inhibition at 1 µM (Pim-1): > 95%
- IC50 (hERG potassium channel): 11900 nM
- IC50 (CYP3A4): 3300 to 10000 nM
- inhibition at 1 µM (FLT3wt): < 5%
- IC50 (HepG2 cells; Homo sapiens, HepG2, 72 h): 4700 nM
- IC50 (MV4-11 cells; Homo sapiens, MV4-11, 72 h): 2800 nM
- inhibition at 1 µM (Pim-2): 31%
- inhibition at 1 µM (DYRK1): 16%
- inhibition at 1 µM (CDK2/E): < 5%
